Measurements published in the kinase profiling compilation of Christmann-Franck et al. (2016).
pIC50: −log10 of the molar value. Blank lines part the entries; values can stand above or below the compound they belong to.

How the values were obtained:
LRRK2 (human) [1] = biological target: LRRK2 (human) (UniProt Q5S007); test: HTRF; conditions: ATP 100 µM
[2] = biological target: LRRK2 (human), Q5S007 [G2019S]; test: HTRF; conditions: ATP 100 µM
ABL1 (human) = ABL1 (human) (UniProt P00519); test: SelectScreen, TR FRET; conditions: compound 10.0 µM
AKT1 (human) = AKT1 (human) (UniProt P31749); test: SelectScreen, TR FRET
AURKA (human) = AURKA (human) (UniProt O14965); test: SelectScreen, TR FRET; conditions: compound 10.0 µM
CAMK2A (human) = CAMK2A (human) (UniProt Q9UQM7); test: SelectScreen, TR FRET
CDK1 CCNB1 (human) = CDK1 CCNB1 (human) (UniProt P06493+P14635); test: SelectScreen, TR FRET; conditions: compound 10.0 µM
CDK2 CCNA2 (human) = CDK2 CCNA2 (human) (UniProt P24941+P20248); test: SelectScreen, TR FRET
CDK5 CDK5R1 p25 (human) = CDK5 CDK5R1 p25 (human) (UniProt Q15078+Q00535); test: SelectScreen, TR FRET
CHEK1 (human) = CHEK1 (human) (UniProt O14757); test: SelectScreen, TR FRET; conditions: compound 10.0 µM
CLK1 (human) = CLK1 (human) (UniProt P49759); test: SelectScreen, TR FRET; conditions: compound 10.0 µM
CSF1R (human) = CSF1R (human) (UniProt P07333); test: SelectScreen, TR FRET; conditions: compound 10.0 µM
DYRK1B (human) = DYRK1B (human) (UniProt Q9Y463); test: SelectScreen, TR FRET; conditions: compound 10.0 µM
ERBB4 (human) = ERBB4 (human) (UniProt Q15303); test: SelectScreen, TR FRET
FLT3 (human) = FLT3 (human) (UniProt P36888); test: SelectScreen, TR FRET
GSK3B (human) = GSK3B (human) (UniProt P49841); test: SelectScreen, TR FRET
INSR (human) = INSR (human) (UniProt P06213); test: SelectScreen, TR FRET
IRAK4 (human) = IRAK4 (human) (UniProt Q9NWZ3); test: SelectScreen, TR FRET
JAK1 JH1 JH2 (human) = JAK1 JH1 JH2 (human) (UniProt P23458); test: SelectScreen, TR FRET
LCK (human) = LCK (human) (UniProt P06239); test: SelectScreen, TR FRET
LRRK2 (human) [3] = biological target: LRRK2 (human) (UniProt Q5S007); test: SelectScreen, TR FRET; conditions: compound 10.0 µM
MAP3K7 TAB1 (human) = MAP3K7 TAB1 (human) (UniProt Q15750+O43318); test: SelectScreen, TR FRET
MAPK1 (human) = MAPK1 (human) (UniProt P28482); test: SelectScreen, TR FRET
MAPK10 (human) = MAPK10 (human) (UniProt P53779); test: SelectScreen, TR FRET
MARK2 (human) = MARK2 (human) (UniProt Q7KZI7); test: SelectScreen, TR FRET; conditions: compound 10.0 µM
PAK4 (human) = PAK4 (human) (UniProt O96013); test: SelectScreen, TR FRET; conditions: compound 10.0 µM
PDGFRA (human) = PDGFRA (human) (UniProt P16234); test: SelectScreen, TR FRET
PIK3CA PIK3R1 (human) = PIK3CA PIK3R1 (human) (UniProt P27986+P42336); test: SelectScreen, TR FRET
PLK1 (human) = PLK1 (human) (UniProt P53350); test: SelectScreen, TR FRET
PLK2 (human) = PLK2 (human) (UniProt Q9NYY3); test: SelectScreen, TR FRET; conditions: compound 10.0 µM
PLK3 (human) = PLK3 (human) (UniProt Q9H4B4); test: SelectScreen, TR FRET
PRKACA (human) = PRKACA (human) (UniProt P17612); test: SelectScreen, TR FRET; conditions: compound 10.0 µM
PRKCB1 (human) = PRKCB1 (human) (UniProt P05771); test: SelectScreen, TR FRET
PTK2B (human) = PTK2B (human) (UniProt Q14289); test: SelectScreen, TR FRET
RAF1 (human) = RAF1 (human) (UniProt P04049); test: SelectScreen, TR FRET
RET (human) = RET (human) (UniProt P07949); test: SelectScreen, TR FRET; conditions: compound 10.0 µM
RIPK2 (human) = RIPK2 (human) (UniProt O43353); test: SelectScreen, TR FRET; conditions: compound 10.0 µM
ROCK2 (human) = ROCK2 (human) (UniProt O75116); test: SelectScreen, TR FRET
STK16 (human) = STK16 (human) (UniProt O75716); test: SelectScreen, TR FRET
STK3 (human) = STK3 (human) (UniProt Q13188); test: SelectScreen, TR FRET
SYK (human) = SYK (human) (UniProt P43405); test: SelectScreen, TR FRET; conditions: compound 10.0 µM
TTK (human) = TTK (human) (UniProt P33981); test: SelectScreen, TR FRET
TTK (human), sequence (P33981 whole entry, looked up): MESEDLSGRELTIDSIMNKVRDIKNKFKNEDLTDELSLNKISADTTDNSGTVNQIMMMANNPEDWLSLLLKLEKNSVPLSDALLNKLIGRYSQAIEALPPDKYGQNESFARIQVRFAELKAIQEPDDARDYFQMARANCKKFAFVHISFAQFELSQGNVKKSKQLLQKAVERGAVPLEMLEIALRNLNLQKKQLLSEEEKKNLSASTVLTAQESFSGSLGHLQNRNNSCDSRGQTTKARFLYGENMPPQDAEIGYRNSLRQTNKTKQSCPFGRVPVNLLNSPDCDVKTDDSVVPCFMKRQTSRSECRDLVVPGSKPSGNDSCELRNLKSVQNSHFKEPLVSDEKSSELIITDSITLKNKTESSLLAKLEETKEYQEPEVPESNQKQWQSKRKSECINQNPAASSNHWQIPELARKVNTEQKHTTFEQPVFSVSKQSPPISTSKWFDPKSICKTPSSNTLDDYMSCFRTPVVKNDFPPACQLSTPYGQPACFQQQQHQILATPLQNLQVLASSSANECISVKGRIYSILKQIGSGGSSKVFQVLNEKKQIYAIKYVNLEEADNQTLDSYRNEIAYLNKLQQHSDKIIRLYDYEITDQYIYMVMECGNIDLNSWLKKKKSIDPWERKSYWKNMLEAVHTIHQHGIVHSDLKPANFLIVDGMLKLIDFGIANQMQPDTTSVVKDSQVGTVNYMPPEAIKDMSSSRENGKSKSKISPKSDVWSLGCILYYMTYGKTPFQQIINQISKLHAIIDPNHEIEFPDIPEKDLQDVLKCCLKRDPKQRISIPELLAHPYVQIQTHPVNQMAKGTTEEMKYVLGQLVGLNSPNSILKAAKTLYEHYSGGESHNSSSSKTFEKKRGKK

LRRK2 (human), sequence (Q5S007 whole entry, looked up): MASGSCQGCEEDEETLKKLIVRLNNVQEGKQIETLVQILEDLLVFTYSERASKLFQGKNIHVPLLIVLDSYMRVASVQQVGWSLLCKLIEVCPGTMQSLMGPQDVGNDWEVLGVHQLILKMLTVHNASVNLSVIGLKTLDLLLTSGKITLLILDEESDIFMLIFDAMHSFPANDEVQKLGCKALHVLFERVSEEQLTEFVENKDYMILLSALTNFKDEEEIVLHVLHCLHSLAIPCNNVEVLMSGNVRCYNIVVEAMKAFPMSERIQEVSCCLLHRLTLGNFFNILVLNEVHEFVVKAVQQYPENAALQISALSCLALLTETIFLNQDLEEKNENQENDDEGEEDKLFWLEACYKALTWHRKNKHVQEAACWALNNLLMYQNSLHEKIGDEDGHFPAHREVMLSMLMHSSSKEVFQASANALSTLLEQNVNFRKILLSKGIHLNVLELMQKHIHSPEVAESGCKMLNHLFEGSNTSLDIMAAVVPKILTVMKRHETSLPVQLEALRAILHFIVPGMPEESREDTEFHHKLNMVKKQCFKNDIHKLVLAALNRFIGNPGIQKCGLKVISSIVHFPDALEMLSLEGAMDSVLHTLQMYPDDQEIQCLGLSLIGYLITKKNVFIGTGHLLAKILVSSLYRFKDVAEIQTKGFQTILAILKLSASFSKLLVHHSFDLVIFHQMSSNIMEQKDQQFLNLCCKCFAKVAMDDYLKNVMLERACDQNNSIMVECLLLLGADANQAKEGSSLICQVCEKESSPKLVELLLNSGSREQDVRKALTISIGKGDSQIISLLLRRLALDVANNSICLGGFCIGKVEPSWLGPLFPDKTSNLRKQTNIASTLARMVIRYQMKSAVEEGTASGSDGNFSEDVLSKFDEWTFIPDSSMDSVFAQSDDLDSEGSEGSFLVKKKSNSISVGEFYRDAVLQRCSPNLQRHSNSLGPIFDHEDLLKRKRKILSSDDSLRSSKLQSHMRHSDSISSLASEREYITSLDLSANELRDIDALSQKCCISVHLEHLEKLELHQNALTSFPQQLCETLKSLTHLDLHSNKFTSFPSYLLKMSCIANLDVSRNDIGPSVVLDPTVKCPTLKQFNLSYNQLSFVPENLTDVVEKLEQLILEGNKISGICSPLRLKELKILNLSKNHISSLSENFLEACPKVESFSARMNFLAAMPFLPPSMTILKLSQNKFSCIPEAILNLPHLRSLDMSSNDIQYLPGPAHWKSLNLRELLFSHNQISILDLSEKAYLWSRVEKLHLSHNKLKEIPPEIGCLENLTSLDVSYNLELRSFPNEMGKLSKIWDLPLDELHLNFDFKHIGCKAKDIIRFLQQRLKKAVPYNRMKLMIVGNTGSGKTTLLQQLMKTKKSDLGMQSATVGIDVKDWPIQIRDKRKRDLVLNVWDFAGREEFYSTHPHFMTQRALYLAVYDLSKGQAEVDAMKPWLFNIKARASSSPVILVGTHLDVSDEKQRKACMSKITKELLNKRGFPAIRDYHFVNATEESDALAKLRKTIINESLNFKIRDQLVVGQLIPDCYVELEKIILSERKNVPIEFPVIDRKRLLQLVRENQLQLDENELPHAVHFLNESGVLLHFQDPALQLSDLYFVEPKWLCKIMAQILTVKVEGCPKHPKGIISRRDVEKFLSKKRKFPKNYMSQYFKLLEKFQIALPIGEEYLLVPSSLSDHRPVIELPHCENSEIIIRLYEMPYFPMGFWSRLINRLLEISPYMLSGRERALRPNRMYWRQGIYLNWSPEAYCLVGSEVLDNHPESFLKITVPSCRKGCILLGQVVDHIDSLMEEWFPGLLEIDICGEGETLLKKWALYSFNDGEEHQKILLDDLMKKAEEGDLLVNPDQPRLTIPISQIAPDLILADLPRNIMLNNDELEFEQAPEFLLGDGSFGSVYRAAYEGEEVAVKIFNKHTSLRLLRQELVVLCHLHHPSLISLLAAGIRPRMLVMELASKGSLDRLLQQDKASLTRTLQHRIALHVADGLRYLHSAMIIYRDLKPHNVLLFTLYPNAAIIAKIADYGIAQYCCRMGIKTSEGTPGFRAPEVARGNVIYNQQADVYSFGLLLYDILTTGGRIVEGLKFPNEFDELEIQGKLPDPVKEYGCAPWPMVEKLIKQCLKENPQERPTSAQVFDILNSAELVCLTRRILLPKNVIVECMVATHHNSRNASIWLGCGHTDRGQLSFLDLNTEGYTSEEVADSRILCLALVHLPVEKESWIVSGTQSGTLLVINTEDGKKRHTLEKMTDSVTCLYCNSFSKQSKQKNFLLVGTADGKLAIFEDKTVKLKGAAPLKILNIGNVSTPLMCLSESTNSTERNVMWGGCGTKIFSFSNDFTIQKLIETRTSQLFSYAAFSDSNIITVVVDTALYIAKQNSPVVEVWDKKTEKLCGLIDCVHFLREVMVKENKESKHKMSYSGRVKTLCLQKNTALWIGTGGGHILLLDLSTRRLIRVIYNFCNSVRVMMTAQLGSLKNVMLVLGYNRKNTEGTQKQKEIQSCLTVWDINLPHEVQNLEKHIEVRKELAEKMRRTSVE
CDK2 CCNA2 (human), sequence (P20248 whole entry, looked up, other chains not shown): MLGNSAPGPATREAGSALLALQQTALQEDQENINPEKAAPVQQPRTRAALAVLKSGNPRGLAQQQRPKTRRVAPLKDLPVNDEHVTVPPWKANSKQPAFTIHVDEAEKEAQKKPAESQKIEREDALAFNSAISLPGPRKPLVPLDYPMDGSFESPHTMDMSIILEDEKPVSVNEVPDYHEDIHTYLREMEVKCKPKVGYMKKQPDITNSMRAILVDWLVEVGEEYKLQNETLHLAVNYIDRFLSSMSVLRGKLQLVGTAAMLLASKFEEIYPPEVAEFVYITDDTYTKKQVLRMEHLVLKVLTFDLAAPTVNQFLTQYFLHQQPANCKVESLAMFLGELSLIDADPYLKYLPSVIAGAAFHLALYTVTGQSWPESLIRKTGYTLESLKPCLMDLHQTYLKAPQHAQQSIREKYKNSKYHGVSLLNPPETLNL
PLK3 (human), sequence (Q9H4B4 whole entry, looked up): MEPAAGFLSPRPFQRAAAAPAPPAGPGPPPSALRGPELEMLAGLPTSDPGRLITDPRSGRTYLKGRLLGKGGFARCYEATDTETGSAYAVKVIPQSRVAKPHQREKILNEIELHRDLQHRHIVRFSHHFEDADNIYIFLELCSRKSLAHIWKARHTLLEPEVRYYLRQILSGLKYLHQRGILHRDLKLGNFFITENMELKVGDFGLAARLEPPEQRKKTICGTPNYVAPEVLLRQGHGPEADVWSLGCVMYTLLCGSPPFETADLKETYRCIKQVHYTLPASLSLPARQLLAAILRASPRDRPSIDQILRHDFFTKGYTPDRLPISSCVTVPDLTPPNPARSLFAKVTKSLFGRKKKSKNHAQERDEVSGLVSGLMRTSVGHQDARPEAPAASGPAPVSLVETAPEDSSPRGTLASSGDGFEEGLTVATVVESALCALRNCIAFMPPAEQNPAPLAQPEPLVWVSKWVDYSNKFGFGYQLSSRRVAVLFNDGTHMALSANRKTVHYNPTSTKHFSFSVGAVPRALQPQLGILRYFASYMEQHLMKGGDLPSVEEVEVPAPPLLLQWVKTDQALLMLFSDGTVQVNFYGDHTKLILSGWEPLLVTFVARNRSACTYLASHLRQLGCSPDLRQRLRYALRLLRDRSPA
MAPK1 (human), sequence (P28482 whole entry, looked up): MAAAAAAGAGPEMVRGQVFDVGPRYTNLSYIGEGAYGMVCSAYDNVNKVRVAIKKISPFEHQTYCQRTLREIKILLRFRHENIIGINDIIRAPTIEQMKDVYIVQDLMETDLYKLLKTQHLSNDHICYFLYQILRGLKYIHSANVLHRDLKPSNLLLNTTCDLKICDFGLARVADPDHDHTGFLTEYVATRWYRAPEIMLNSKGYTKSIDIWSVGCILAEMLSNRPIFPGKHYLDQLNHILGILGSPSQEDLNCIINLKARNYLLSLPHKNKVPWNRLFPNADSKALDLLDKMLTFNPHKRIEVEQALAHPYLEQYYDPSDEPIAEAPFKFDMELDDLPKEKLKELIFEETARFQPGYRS
LRRK2 (human), Q5S007 [G2019S], sequence (Q5S007 whole entry G2019S, looked up): as the sequence (Q5S007 whole entry, looked up) above, with G2019S counted along it

- pIC50 (LRRK2 (human) [1]): 7.32
- pIC50 [2]: 7.57
- inhibition (ABL1 (human)): 29.9%
- inhibition (AKT1 (human); compound 10.0 µM): -1.71%
- inhibition (AURKA (human)): 66.7%
- inhibition (CAMK2A (human); compound 10.0 µM): 29.7%
- inhibition (CDK1 CCNB1 (human)): 11.7%
- inhibition (CDK2 CCNA2 (human); compound 10.0 µM): 0.295%
- inhibition (CDK5 CDK5R1 p25 (human); compound 10.0 µM): 5.49%
- inhibition (CHEK1 (human)): 30.7%
- inhibition (CLK1 (human)): 6.88%
- inhibition (CSF1R (human)): 39.5%
- inhibition (DYRK1B (human)): 23.7%
- inhibition (ERBB4 (human); compound 10.0 µM): 6.95%
- inhibition (FLT3 (human); compound 10.0 µM): 44.5%
- inhibition (GSK3B (human); compound 10.0 µM): 0.682%
- inhibition (INSR (human); compound 10.0 µM): 0.146%
- inhibition (IRAK4 (human); compound 10.0 µM): 9.89%
- inhibition (JAK1 JH1 JH2 (human); compound 10.0 µM): 4.09%
- inhibition (LCK (human); compound 10.0 µM): 18.4%
- inhibition (LRRK2 (human) [3]): 81.3%
- inhibition (MAP3K7 TAB1 (human); compound 10.0 µM): -5.32%
- inhibition (MAPK1 (human); compound 10.0 µM): -1.85%
- inhibition (MAPK10 (human); compound 10.0 µM): -17.1%
- inhibition (MARK2 (human)): 40.2%
- inhibition (PAK4 (human)): 19.3%
- inhibition (PDGFRA (human); compound 10.0 µM): 4.67%
- inhibition (PIK3CA PIK3R1 (human); compound 10.0 µM): 13.5%
- inhibition (PLK1 (human); compound 10.0 µM): 8.21%
- inhibition (PLK2 (human)): 53.7%
- inhibition (PLK3 (human); compound 10.0 µM): 5.89%
- inhibition (PRKACA (human)): -2.65%
- inhibition (PRKCB1 (human); compound 10.0 µM): -1.79%
- inhibition (PTK2B (human); compound 10.0 µM): 15.9%
- inhibition (RAF1 (human); compound 10.0 µM): 5.94%
- inhibition (RET (human)): 11.8%
- inhibition (RIPK2 (human)): 55.8%
- inhibition (ROCK2 (human); compound 10.0 µM): 16.4%
- inhibition (STK16 (human); compound 10.0 µM): -24.1%
- inhibition (STK3 (human); compound 10.0 µM): 18.1%
- inhibition (SYK (human)): 71%
- inhibition (TTK (human); compound 10.0 µM): 11.2%
SMILES: C[C@@H](Nc1c(C#N)cnc2cc(-c3ccc(N4CCOC4=O)cc3)ccc12)C1CC1

- inhibition (AKT1 (human); compound 1.0 µM): 9.66%
- inhibition (CDK2 CCNA2 (human); compound 1.0 µM): 11.7%
- inhibition (FLT3 (human); compound 1.0 µM): 15.5%
- inhibition (GSK3B (human); compound 1.0 µM): 27.6%
- inhibition (IRAK4 (human); compound 1.0 µM): 29.4%
- inhibition (JAK1 JH1 JH2 (human); compound 1.0 µM): 16.5%
- inhibition (LCK (human); compound 1.0 µM): 25.5%
- inhibition (MAP3K7 TAB1 (human); compound 1.0 µM): 7.1%
- inhibition (MAPK1 (human); compound 1.0 µM): 9.79%
- inhibition (MAPK10 (human); compound 1.0 µM): -11.1%
- inhibition (PDGFRA (human); compound 1.0 µM): 33.4%
- inhibition (PIK3CA PIK3R1 (human); compound 1.0 µM): -1.66%
- inhibition (PLK3 (human); compound 1.0 µM): 13.5%
- inhibition (PRKCB1 (human); compound 1.0 µM): 19.4%
- inhibition (PTK2B (human); compound 1.0 µM): 33.5%
- inhibition (RAF1 (human); compound 1.0 µM): 3.26%
- inhibition (ROCK2 (human); compound 1.0 µM): 11.8%
- inhibition (STK16 (human); compound 1.0 µM): 3.38%
- inhibition (TTK (human); compound 1.0 µM): -3.76%
SMILES: CC(C)Nc1c(C#N)cnc2cc(-c3ccc(S(C)(=O)=O)cc3)ccc12

- pIC50 (LRRK2 (human) [1]): 7.15
- pIC50 [2]: 7.30
- inhibition (AKT1 (human); compound 1.0 µM): -0.488%
- inhibition (CAMK2A (human); compound 1.0 µM): 27.5%
- inhibition (CDK2 CCNA2 (human); compound 1.0 µM): 5.33%
- inhibition (CDK5 CDK5R1 p25 (human); compound 1.0 µM): 12.4%
- inhibition (ERBB4 (human); compound 1.0 µM): 4.52%
- inhibition (INSR (human); compound 1.0 µM): 1.29%
- inhibition (JAK1 JH1 JH2 (human); compound 1.0 µM): 2.9%
- inhibition (MAPK1 (human); compound 1.0 µM): -2.05%
- inhibition (MAPK10 (human); compound 1.0 µM): 4.47%
- inhibition (PLK1 (human); compound 1.0 µM): 23.6%
- inhibition (PLK3 (human); compound 1.0 µM): 11.5%
- inhibition (PRKCB1 (human); compound 1.0 µM): -7.3%
- inhibition (PTK2B (human); compound 1.0 µM): 12.2%
- inhibition (RAF1 (human); compound 1.0 µM): 12.4%
- inhibition (ROCK2 (human); compound 1.0 µM): 14.2%
- inhibition (STK16 (human); compound 1.0 µM): 10.1%
- inhibition (STK3 (human); compound 1.0 µM): 15.4%
- inhibition (TTK (human); compound 1.0 µM): -8.51%
SMILES: CC(C)Nc1c(C#N)cnc2cc(-c3cnn(C)c3)ccc12
